{"source": "patent US10221177B2", "about": "(HYDRA BIOSCIENCES, INC., priority 2014, dated 2019)", "data": [{"biological_target": "human TRPA1 (Homo sapiens (Human), UniProt O75762)", "sequence (O75762 whole entry)": "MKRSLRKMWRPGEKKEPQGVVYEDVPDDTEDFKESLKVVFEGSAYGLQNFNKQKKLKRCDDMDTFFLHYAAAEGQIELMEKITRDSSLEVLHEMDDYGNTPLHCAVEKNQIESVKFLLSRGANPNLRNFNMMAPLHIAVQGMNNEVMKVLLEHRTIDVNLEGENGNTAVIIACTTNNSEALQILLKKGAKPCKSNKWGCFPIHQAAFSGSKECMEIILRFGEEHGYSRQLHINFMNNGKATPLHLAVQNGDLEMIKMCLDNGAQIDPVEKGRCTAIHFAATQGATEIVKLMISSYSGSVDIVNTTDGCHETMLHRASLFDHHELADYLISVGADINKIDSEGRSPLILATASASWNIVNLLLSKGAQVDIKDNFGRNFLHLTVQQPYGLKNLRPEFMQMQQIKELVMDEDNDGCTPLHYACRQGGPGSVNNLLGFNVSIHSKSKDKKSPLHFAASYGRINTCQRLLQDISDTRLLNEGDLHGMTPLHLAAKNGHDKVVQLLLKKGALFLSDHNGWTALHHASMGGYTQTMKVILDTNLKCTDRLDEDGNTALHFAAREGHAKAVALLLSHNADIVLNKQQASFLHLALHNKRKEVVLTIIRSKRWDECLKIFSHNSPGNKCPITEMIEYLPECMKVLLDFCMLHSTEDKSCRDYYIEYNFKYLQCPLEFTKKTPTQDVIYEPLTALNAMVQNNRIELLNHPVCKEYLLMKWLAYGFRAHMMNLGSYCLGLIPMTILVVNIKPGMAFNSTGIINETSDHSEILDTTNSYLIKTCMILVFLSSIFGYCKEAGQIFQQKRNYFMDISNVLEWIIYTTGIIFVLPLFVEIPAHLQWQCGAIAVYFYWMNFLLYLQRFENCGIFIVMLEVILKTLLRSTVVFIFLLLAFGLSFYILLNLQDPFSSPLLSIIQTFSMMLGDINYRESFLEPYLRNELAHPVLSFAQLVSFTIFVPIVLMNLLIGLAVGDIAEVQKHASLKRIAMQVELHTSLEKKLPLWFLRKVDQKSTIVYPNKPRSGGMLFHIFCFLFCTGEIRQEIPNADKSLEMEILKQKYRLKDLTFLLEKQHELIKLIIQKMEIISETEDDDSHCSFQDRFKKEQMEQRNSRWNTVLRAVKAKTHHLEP", "assay": "In vitro inhibition of human TRPA1, whole cell patch configuration", "format": "cell-based", "conditions": "current activation 10 μM AITC, tested concentrations 320 pM to 3.2 μM, read-out: hTRPA1 IC50", "outline": "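Whole-cell patch clamp, bath 150 mM NaCl, 10 mM HEPES, 1 mM EGTA, 3 mM MgCl2, pH 7.4 (sometimes 2 mM CaCl2, 1 mM MgCl2). Currents recorded continuously at −60 mV or by 400 ms ramps from −40 mV holding every 4 s; inward/outward currents taken at −80/80 mV, with controlled-temperature focal perfusion.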", "units": {"IC50": "nM"}, "values": [{"molecule": "Cc1cc(-c2nc(NC(=O)[C@H](C)n3cnc4c3c(=O)n(CC(F)(F)F)c(=O)n4C)cs2)cnc1C(F)(F)F", "note": "[Compound 161, (S)-2-(3-methyl-2,6-dioxo-1-(2,2,2-trifluoroethyl)-2,3-dihydro-1H-purin-7(6H)-yl)-N-(2-(5-methyl-6-(trifluoromethyl)pyridin-3-yl)thiazol-4-yl)propanamide]", "IC50": 219}, {"molecule": "Cc1nc(Cn2c(=O)c3c(ncn3[C@@H](C)C(=O)Nc3cccc(-c4cnc(C)c(C(F)(F)F)c4)n3)n(C)c2=O)no1", "note": "[Compound 151, (S)-2-(3-methyl-1-((5-methyl-1,2,4-oxadiazol-3-yl)methyl)-2,6-dioxo-2,3-dihydro-1H-purin-7(6H)-yl)-N-(6′-methyl-5′-(trifluoromethyl)-2,3′-bipyridin-6-yl)propanamide]", "IC50": 16}, {"molecule": "CC#CCn1c(=O)c2c(ncn2[C@@H](C)C(=O)Nc2csc(-c3cnc(N4CC5C(C4)C5(F)F)nc3)n2)n(C)c1=O", "note": "(stereo partly drawn) [Compound 267, (2S)-2-(1-(but-2-ynyl)-3-methyl-2,6-dioxo-2,3-dihydro-1H-purin-7(6H)-yl)-N-(2-(2-(6,6-difluoro-3-azabicyclo[3.1.0]hexan-3-yl)pyrimidin-5-yl)thiazol-4-yl)propanamide]", "IC50": 2}, {"molecule": "CC#CCn1c(=O)c2c(ncn2[C@@H](C)C(=O)Nc2csc(-c3cnc(N4CCC[C@@H]4C(F)(F)F)nc3)n2)n(C)c1=O", "note": "[Compound 157, (S)-2-(1-(but-2-ynyl)-3-methyl-2,6-dioxo-2,3-dihydro-1H-purin-7(6H)-yl)-N-(2-(2-((R)-2-(trifluoromethyl)pyrrolidin-1-yl)pyrimidin-5-yl)thiazol-4-yl)propanamide]", "IC50": 1}, {"molecule": "COCC(=O)Cn1c(=O)c2c(ncn2[C@@H](C)C(=O)Nc2csc(-c3cnc(N4CC5C(C4)C5(F)F)nc3)n2)n(C)c1=O", "note": "(stereo partly drawn) [Compound 265, (2S)—N-(2-(2-(6,6-difluoro-3-azabicyclo[3.1.0]hexan-3-yl)pyrimidin-5-yl)thiazol-4-yl)-2-(1-(3-methoxy-2-oxopropyl)-3-methyl-2,6-dioxo-2,3-dihydro-1H-purin-7(6H)-yl)propanamide]", "IC50": 3}, {"molecule": "CC(=O)Cn1c(=O)c2c(ncn2[C@@H](C)C(=O)Nc2cccc(-c3ccc(C(F)(F)F)nc3)n2)n(C)c1=O", "note": "[Compound 2, (S)-2-(3-methyl-2,6-dioxo-1-(2-oxopropyl)-2,3-dihydro-1H-purin-7(6H)-yl)-N-(6′-(trifluoromethyl)-[2,3′-bipyridin]-6-yl)propanamide]", "IC50": 21}, {"molecule": "CC(=O)Cn1c(=O)c2c(ncn2[C@@H](C)C(=O)Nc2cncc(-c3ccc(N4CC5CC5C4)nc3)n2)n(C)c1=O", "note": "(stereo partly drawn) [Compound 41, (2S)—N-(6-(6-(3-azabicyclo[3.1.0]hexan-3-yl)pyridin-3-yl)pyrazin-2-yl)-2-(3-methyl-2,6-dioxo-1-(2-oxopropyl)-2,3-dihydro-1H-purin-7(6H)-yl)propanamide]", "IC50": 12}, {"molecule": "(S)-2-(3-methyl-1-((3-methyl-1,2,4-oxadiazol-5-yl)methyl)-2,6-dioxo-2,3-dihydro-1H-purin-7(6H)-yl)-N-(5′-methyl-6′-(trifluoromethyl)-[2,3′-bipyridin]-6-yl)propanamide [Compound 134]", "IC50": 3}, {"molecule": "CCOc1ncc(-c2cccc(NC(=O)[C@H](C)n3cnc4c3c(=O)n(CC(=O)CC)c(=O)n4C)n2)cc1C(F)(F)F", "note": "[Compound 125, (S)—N-(6′-ethoxy-5′-(trifluoromethyl)-[2,3′-bipyridin]-6-yl)-2-(3-methyl-2,6-dioxo-1-(2-oxobutyl)-2,3-dihydro-1H-purin-7(6H)-yl)propanamide]", "IC50": 1}, {"molecule": "Cc1cc(Cn2c(=O)c3c(ncn3[C@@H](C)C(=O)Nc3cccc(-c4cnc(N5CCC[C@H]5C(F)(F)F)nc4)n3)n(C)c2=O)no1", "note": "[Compound 115, (S)-2-(3-methyl-1-((5-methylisoxazol-3-yl)methyl)-2,6-dioxo-2,3-dihydro-1H-purin-7(6H)-yl)-N-(6-(2-((S)-2-(trifluoromethyl)pyrrolidin-1-yl)pyrimidin-5-yl)pyridin-2-yl)propanamide]", "IC50": 1}, {"molecule": "Cc1noc(Cn2c(=O)c3c(ncn3CC(=O)Nc3csc(-c4cnc(C(F)(F)F)nc4)n3)n(C)c2=O)n1", "note": "[Compound 260, 2-(3-methyl-1-((3-methyl-1,2,4-oxadiazol-5-yl)methyl)-2,6-dioxo-2,3-dihydro-1H-purin-7(6H)-yl)-N-(2-(2-(trifluoromethyl)pyrimidin-5-yl)thiazol-4-yl)acetamide]", "IC50": 17}, {"molecule": "Cc1cc(Cn2c(=O)c3c(ncn3CC(=O)Nc3cccc(-c4cnc(C)c(C(F)(F)F)c4)n3)n(C)c2=O)no1", "note": "[Compound 238, 2-(3-methyl-1-((5-methylisoxazol-3-yl)methyl)-2,6-dioxo-2,3-dihydro-1H-purin-7(6H)-yl)-N-(6′-methyl-5′-(trifluoromethyl)-[2,3′-bipyridin]-6-yl)acetamide]", "IC50": 4}, {"molecule": "Cn1c(=O)n(Cc2ccccn2)c(=O)c2c1ncn2CC(=O)Nc1cccc(-c2cnc(N3CCC[C@H]3C(F)(F)F)nc2)n1", "note": "[Compound 189, (S)-2-(3-methyl-2,6-dioxo-1-(pyridin-2-ylmethyl)-2,3-dihydro-1H-purin-7(6H)-yl)-N-(6-(2-(2-(trifluoromethyl)pyrrolidin-1-yl)pyrimidin-5-yl)pyridin-2-yl)acetamide]", "IC50": 2}, {"molecule": "CC(=O)Cn1c(=O)c2c(ncn2[C@@H](C)C(=O)Nc2cncc(-c3cnc(C)c(Cl)c3)n2)n(C)c1=O", "note": "[Compound 140, (S)—N-(6-(5-chloro-6-methylpyridin-3-yl)pyrazin-2-yl)-2-(3-methyl-2,6-dioxo-1(2-oxopropyl)-2,3-dihydro-1H-purin-7(6H)-yl)propanamide]", "IC50": 32}, {"molecule": "Cc1cc(Cn2c(=O)c3c(ncn3[C@@H](C)C(=O)Nc3ccnc(-c4cnc(C(F)(F)F)c(C)c4)n3)n(C)c2=O)no1", "note": "[Compound 85, (S)-2-(3-methyl-1-((5-methylisoxazol-3-yl)methyl)-2,6-dioxo-2,3-dihydro-1H-purin-7(6H)-yl)-N-(2-(5-methyl-6-(trifluoromethyl)pyridin-3-yl)pyrimidin-4-yl)propanamide]", "IC50": 3}, {"molecule": "Cc1noc(Cn2c(=O)c3c(ncn3[C@@H](C)C(=O)Nc3cccc(-c4cnc(N5CC6CC6C5)nc4)n3)n(C)c2=O)n1", "note": "(stereo partly drawn) [Compound 167, (2S)—N-(6-(2-(3-azabicyclo[3.1.0]hexan-3-yl)pyrimidin-5-yl)pyridin-2-yl)-2-(3-methyl-1-((3-methyl-1,2,4-oxadiazol-5-yl)methyl)-2,6-dioxo-2,3-dihydro-1H-purin-7(6H)-yl)propanamide]", "IC50": 4}, {"molecule": "Cc1noc(Cn2c(=O)c3c(ncn3CC(=O)Nc3cccc(-c4cnc(C(F)(F)F)c(C)c4)n3)n(C)c2=O)n1", "note": "[Compound 222, 2-(3-methyl-1-((3-methyl-1,2,4-oxadiazol-5-yl)methyl)-2,6-dioxo-2,3-dihydro-1H-purin-7(6H)-yl)-N-(5′-methyl-6′-(trifluoromethyl)-[2,3′-bipyridin]-6-yl)acetamide]", "IC50": 5}, {"molecule": "Cc1nc(Cn2c(=O)c3c(ncn3CC(=O)Nc3cccc(-c4cnc(C)c(C(F)(F)F)c4)n3)n(C)c2=O)no1", "note": "[Compound 240]", "IC50": 7}, {"molecule": "Cc1cc(Cn2c(=O)c3c(ncn3CC(=O)Nc3cccc(-c4cnc(C)c(F)c4)n3)n(C)c2=O)no1", "note": "[Compound 228, N-(5′-fluoro-6′-methyl-[2,3′-bipyridin]-6-yl)-2-(3-methyl-1-((5-methylisoxazol-3-yl)methyl)-2,6-dioxo-2,3-dihydro-1H-purin-7(6H)-yl)acetamide]", "IC50": 17}, {"molecule": "CC(=O)Cn1c(=O)c2c(ncn2[C@@H](C)C(=O)Nc2csc(-c3ccc(N4CC5CC5C4)nc3)n2)n(C)c1=O", "note": "(stereo partly drawn) [Compound 63, (2S)—N-(2-(6-(3-azabicyclo[3.1.0]hexan-3-yl)pyridin-3-yl)thiazol-4-yl)-2-(3-methyl-2,6-dioxo-1-(2-oxopropyl)-2,3-dihydro-1H-purin-7(6H)-yl)propanamide]", "IC50": 2}, {"molecule": "CCC(=O)Cn1c(=O)c2c(ncn2[C@@H](C)C(=O)Nc2csc(-c3cnc(N(CC)CC)nc3)n2)n(C)c1=O", "note": "[Compound 38, (S)—N-(2-(2-(diethylamino)pyrimidin-5-yl)thiazol-4-yl)-2-(3-methyl-2,6-dioxo-1-(2-oxobutyl)-2,3-dihydro-1H-purin-7(6H)-yl)propanamide]", "IC50": 3}, {"molecule": "Cc1noc(Cn2c(=O)c3c(ncn3[C@@H](C)C(=O)Nc3csc(-c4cnc(C)c(C(F)(F)F)c4)n3)n(C)c2=O)n1", "note": "[Compound 108, (S)-2-(3-methyl-1-((3-methyl-1,2,4-oxadiazol-5-yl)methyl)-2,6-dioxo-2,3-dihydro-1H-purin-7(6H)-yl)-N-(2-(6-methyl-5-(trifluoromethyl)pyridin-3-yl)thiazol-4-yl)propanamide]", "IC50": 1}, {"molecule": "C[C@@H](C(=O)Nc1csc(-c2ccc(N3CC4CC4C3)nc2)n1)n1cnc2c1c(=O)n(CC#N)c(=O)n2C", "note": "(stereo partly drawn) [Compound 64, (2S)—N-(2-(6-(3-azabicyclo[3.1.0]hexan-3-yl)pyridin-3-yl)thiazol-4-yl)-2-(1-(cyanomethyl)-3-methyl-2,6-dioxo-2,3-dihydro-1H-purin-7(6H)-yl)propanamide]", "IC50": 2}, {"molecule": "Cc1cc(Cn2c(=O)c3c(ncn3[C@@H](C)C(=O)Nc3cncc(-c4cnc(C)c(C(F)(F)F)c4)n3)n(C)c2=O)no1", "note": "[Compound 128, (S)-2-(3-methyl-1-((5-methylisoxazol-3-yl)methyl)-2,6-dioxo-2,3-dihydro-1H-purin-7(6H)-yl)-N-(6-(6-methyl-5-(trifluoromethyl)pyridin-3-yl)pyrazin-2-yl)propanamide]", "IC50": 4}, {"molecule": "Cc1cc(Cn2c(=O)c3c(ncn3[C@@H](C)C(=O)Nc3cccc(-c4noc(C(F)(F)F)n4)n3)n(C)c2=O)no1", "note": "[Compound 78]", "IC50": 86}, {"molecule": "Cc1cc(Cn2c(=O)c3c(ncn3CC(=O)Nc3cccc(N4CCC(C(C)(C)F)CC4)n3)n(C)c2=O)no1", "note": "[Compound 219, N-(6-(4-(2-fluoropropan-2-yl)piperidin-1-yl)pyridin-2-yl)-2-(3-methyl-1-((5-methylisoxazol-3-yl)methyl)-2,6-dioxo-2,3-dihydro-1H-purin-7(6H)-yl)acetamide]", "IC50": 23}]}]}
